Tests used:
Experiment in all cases: relative viability (nuclei count vs DMSO), 5 days (fraction); higher = more cells survive
NCI-H1437 = details: first compound 4 µM
How it was run: (§1)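 For relative viability, nuclei counts in treated wells were divided by those in vehicle wells. Lung cancer cell lines had been pin-tool dosed in 1536-well plates the day after seeding and cultured for 5 days, then fixed and stained in one step (final 0.05% Triton X-100, 1% formaldehyde, 1 ug/ml Hoechst) and imaged at 4×. Doses were one drug alone or a fixed anchor-drug dose plus five library-drug doses (not always all listed) in √10 steps, and values are duplicate-plate medians.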

NCI-H1734 = system: NCI-H1734
How it was run: as §1

NCI-H1792 = system: NCI-H1792
How it was run: as §1

NCI-H2009 = system: NCI-H2009
How it was run: as §1

NCI-H2087 = system: NCI-H2087
How it was run: as §1

NCI-H2228 = system: NCI-H2228
How it was run: as §1

NCI-H2405 = system: NCI-H2405
How it was run: as §1

NCI-H596 = system: NCI-H596
How it was run: as §1

NCI-H647 = system: NCI-H647
How it was run: as §1

NCI-H661 = system: NCI-H661
How it was run: as §1

SK-LU-1 = system: SK-LU-1
How it was run: as §1

SK-MES-1 = system: SK-MES-1
How it was run: as §1

Compound: COc1cc(N2CCC(C(N)=O)CC2)ccc1Nc1nc(N)c(Cl)c(Nc2ccccc2S(=O)(=O)C(C)C)n1 [HG-5-88-01] + C[C@]1(O)C[C@@H](c2nc(-c3ccc4ccc(-c5ccccc5)nc4c3)c3c(N)nccn32)C1 [Linsitinib] (partner 1 µM)
- relative viability (NCI-H1437): 1.18
- relative viability (NCI-H1734; first compound 0.04 µM): 0.811
- relative viability (NCI-H1734; first compound 0.1265 µM): 0.851
- relative viability (NCI-H1734; first compound 0.4 µM): 0.964
- relative viability (NCI-H1734; first compound 1.265 µM): 0.885
- relative viability (NCI-H1734; first compound 4 µM): 1.02
- relative viability (NCI-H1792; first compound 0.04 µM): 0.711
- relative viability (NCI-H1792; first compound 0.1265 µM): 0.513
- relative viability (NCI-H1792; first compound 0.4 µM): 0.515
- relative viability (NCI-H1792; first compound 1.265 µM): 0.561
- relative viability (NCI-H1792; first compound 4 µM): 0.818
- relative viability (NCI-H2009; first compound 0.04 µM): 1.23
- relative viability (NCI-H2009; first compound 0.1265 µM): 1.14
- relative viability (NCI-H2009; first compound 0.4 µM): 1.23
- relative viability (NCI-H2009; first compound 1.265 µM): 1.12
- relative viability (NCI-H2009; first compound 4 µM): 1.17
- relative viability (NCI-H2087; first compound 0.04 µM): 0.85
- relative viability (NCI-H2087; first compound 0.1265 µM): 1.07
- relative viability (NCI-H2087; first compound 0.4 µM): 0.912
- relative viability (NCI-H2087; first compound 1.265 µM): 0.964
- relative viability (NCI-H2087; first compound 4 µM): 0.888
- relative viability (NCI-H2228; first compound 0.04 µM): 0.234
- relative viability (NCI-H2228; first compound 0.1265 µM): 0.382
- relative viability (NCI-H2228; first compound 0.4 µM): 0.389
- relative viability (NCI-H2228; first compound 1.265 µM): 0.41
- relative viability (NCI-H2228; first compound 4 µM): 0.315
- relative viability (NCI-H2405; first compound 0.04 µM): 1.06
- relative viability (NCI-H2405; first compound 0.1265 µM): 1.01
- relative viability (NCI-H2405; first compound 0.4 µM): 0.807
- relative viability (NCI-H2405; first compound 1.265 µM): 0.714
- relative viability (NCI-H2405; first compound 4 µM): 1.02
- relative viability (NCI-H596; first compound 0.04 µM): 1
- relative viability (NCI-H596; first compound 0.1265 µM): 1.12
- relative viability (NCI-H596; first compound 0.4 µM): 1.2
- relative viability (NCI-H596; first compound 1.265 µM): 1.13
- relative viability (NCI-H596; first compound 4 µM): 1.17
- relative viability (NCI-H647; first compound 0.04 µM): 1.21
- relative viability (NCI-H647; first compound 0.1265 µM): 1.38
- relative viability (NCI-H647; first compound 1.265 µM): 1.08
- relative viability (NCI-H647; first compound 4 µM): 1.12
- relative viability (NCI-H661; first compound 0.04 µM): 0.586
- relative viability (NCI-H661; first compound 0.1265 µM): 0.624
- relative viability (NCI-H661; first compound 0.4 µM): 0.682
- relative viability (NCI-H661; first compound 4 µM): 0.669
- relative viability (SK-LU-1; first compound 0.04 µM): 1.02
- relative viability (SK-LU-1; first compound 0.1265 µM): 1
- relative viability (SK-LU-1; first compound 0.4 µM): 1.09
- relative viability (SK-LU-1; first compound 1.265 µM): 1.21
- relative viability (SK-LU-1; first compound 4 µM): 0.996
- relative viability (SK-MES-1; first compound 0.04 µM): 1.02
- relative viability (SK-MES-1; first compound 0.1265 µM): 1.03
- relative viability (SK-MES-1; first compound 0.4 µM): 1.08
- relative viability (SK-MES-1; first compound 1.265 µM): 1.04
- relative viability (SK-MES-1; first compound 4 µM): 1.14

— the supplement of paper PMC10307832
